Here are results for one molecule from paper PMC8103899, “Allyl Isothiocyanate: A TAS2R38 Receptor-Dependent Immune Modulator at the Interface Between Personalized Medicine and Nutrition” (Frontiers in Immunology, 2021).

Each structure is given as a SMILES string.

For assay [1], the system named is TNF-α, IL-1β, IL-2, IL-6, IL17-A, IL-10. The experiment in a line: Cytokine secretion of CD3/CD28 mAbs stimulated PBMC (MACSplex / ELISA). It counts as cell-based, human. How it is done: PBMC (1x10^6/mL) cultured in RPMI 1640 medium supplemented with 10% heat-inactivated fetal calf serum, 2 mM L-glutamine, 100 U/ml penicillin/streptomycin were stimulated with 0.5 ng/ml CD3/CD28 MAbs and exposed to the test compounds. After 24 h, supernatants were collected and stored at -80°C until analysis using the human MACSplex cytokine 12-kit (Miltenyi Biotec GmbH, Bergisch Gladbach, Germany) according to manufacturer’s protocol to quantify cytokine secretion. Supernatants were also used for photometric quantification by the human TNF-alpha or IL-1β ELISA Ready-Set-Go kit from eBIoscience (Frankfurt, Germany) according to the manufacturer’s instructions.
Figure 6 In […] PBMC, AITC triggers MAPK activation as well as TNF-α release in dependence of the TAS2R38 genotype. PBMC were exposed to AITC or 0.01% DMSO (SC) together with 0.5 ng/mL CD3/CD28 MAbs for 24h (A, B). Cytokine secretion was analyzed using the human MACSplex cytokine 12-kit or ELISA kits. Results are mean values + SD and given as fold of the solvent control. Significance of difference was determined compared to the respective SC as determined by one-way ANOVA, *p < 0.05, **p < 0.01.

A further assay deals with E. coli K-12. Nature of the assay: Bactericidal activity of PBMC co-incubated with E. coli K-12 (DiBAC4(3) depolarization). In kind it is cell-based, Escherichia coli. To be noted: MOI 0.5. How it is done:
E. coli K-12 bacteria were grown in Luria-Bertani medium at 37°C to mid-logarithmic-phase as determined by OD600. Next, PBMC (1x10^6/mL) were incubated with E. coli K-12 at MOI 0.5 in RPMI 1640 medium supplemented with 2% heat-inactivated fetal calf serum and exposed to the test compounds for 120 min in a humidify condition (5% CO2, 37°C). Thereafter, 1 µg/mL of the membrane potential dye DiBAC4(3) was added and incubated for 10 min at room temperature in the dark. Subsequently, the cells were washed once with PBS and centrifuged at 4500 x g for 10 min. The percentage of depolarized bacteria was determined using a FACSCalibur™ flow cytometer with an excitation wavelength of 493 nm.
Figure 3 AITC stimulates NO production and exerts bactericidal activity in dependence of the TAS2R38 haplotype. […] Fluorescence signals (ex 488 nm, em 530± 30 nm) were monitored using a FACSCalibur™. The median fluorescence intensity (MFI) of each sample was calculated using FlowJo software (Ashland, Oregon, USA). […] Cell membrane potential depolarization was determined by staining bacteria with 1 µg/ml DiBAC4(3) for 10 min, in the dark at room temperature. […] Significance of difference was calculated relative to the respective control by one-way ANOVA. […]

As to `C=CCN=C=S` [AITC, allyl isothiocyanate], the “modulation of IL-2, IL-6, IL17-A and IL-10” value in assay [1] (CD3/CD28 mAbs stimulated PBMC) is given as “not clearly genotype dependent”. Moreover, in assay [1] (CD3/CD28 mAbs stimulated cells, AVI/AVI group, 24h), the “effect on TNF-α” value is listed as “No effect”. In addition, the TNF-α secretion result in assay [1] (CD3/CD28 mAbs stimulated cells, PAV/PAV, 24h) is “Similar, but less strong effects”. Further, the IL-1β entry in assay [1] (CD3/CD28 mAbs stimulated, PAV/PAV vs. AVI/AVI cells) was “differential inhibition”. The bactericidal activity result is “no effect” in the assay on E. coli K-12 (AVI/AVI cells) and “increased bactericidal activity” with E. coli K-12 (PAV/PAV cells).
